Read-outs that look alike come from different tables or passages of the source. Some results are limits rather than exact numbers.

These results are taken from patent publication US20250214942A1, “INHIBITORS OF RECEPTOR INTERACTING PROTEIN KINASE I FOR THE TREATMENT OF DISEASE” (Board of Regents, The University of Texas System, priority 2019, published 2025).

Assay [1] deals with human monocytic cell line U937. Put plainly: Human U937 cellular necroptosis assay (TNFalpha + z-VAD-FMK, Cell Titer-Glo viability). It counts as cell-based. The note with it: U937 cells, 25 ng/mL human TNFalpha + 25 μM z-VAD-FMK, read-out: hU937 Avg IC50. An outline of the steps:
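Cells resuspended in phenol red-free RPMI with 10% FBS, stimulated with 25 ng/mL human TNFalpha plus 25 μM z-VAD-FMK, then given serially diluted compound for 22 h at 37° C, 5% CO2. Viability by Cell Titer-Glo 2.0 luminescence; IC50 from four-parameter logistic fit, averaged across runs.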

In assay [2] the target is RIPK1 (Homo sapiens (Human), UniProt Q13546). Description: ADP-Glo kinase assay (RIPK1 activity, conversion of ATP to ADP). It is filed as biochemical. The conditions noted are these: for IC50: 5 nM RIPK1, 50 μM ATP, 6 h reaction, read-out: RIPK1 Enzyme Avg IC50; for observed potency relative to the other enantiomer: enantiomers separated by SFC, assay not named. An outline of the steps: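 ADP-Glo luminescence of ATP-to-ADP conversion by 5 nM RIPK1 with 50 μM ATP (final), 6 h reaction after 10 min compound preincubation at rt. Buffer was 50 mM HEPES pH 7.5, 30 mM MgCl2, 0.05% BSA, 0.02% CHAPS. IC50 from four-parameter logistic fit.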
Chain of RIPK1 (Q13546 1-327): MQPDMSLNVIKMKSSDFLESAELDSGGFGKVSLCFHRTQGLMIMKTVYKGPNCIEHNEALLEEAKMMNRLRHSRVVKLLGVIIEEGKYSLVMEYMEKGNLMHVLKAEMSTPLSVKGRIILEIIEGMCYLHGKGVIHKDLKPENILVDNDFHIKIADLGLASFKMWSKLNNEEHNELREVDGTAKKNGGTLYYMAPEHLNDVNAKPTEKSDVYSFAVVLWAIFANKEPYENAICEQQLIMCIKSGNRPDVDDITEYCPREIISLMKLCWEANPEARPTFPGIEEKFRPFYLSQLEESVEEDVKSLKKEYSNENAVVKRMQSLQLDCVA

Regarding `O=C(N1N=CCC1c1cc(F)cc(F)c1)C12CC(Cn3cnc4ccccc43)(C1)C2` (stereo not drawn) [Example 23, (3-((1H-Benzo[d]imidazol-1-yl)methyl)bicyclo[1.1.1]pentan-1-yl)(5-(3,5-difluorophenyl)-4,5-dihydro-1H-pyrazol-1-yl)methanone], the concentration for half-maximal inhibition (IC50) amounted to 158 nM in assay [1] (Homo sapiens, U-937, 22 h) and 30 nM in assay [2].

On to `N#Cc1cnc(OCC23CC(C(=O)N4N=CC[C@H]4c4cc(F)cc(F)c4)(C2)C3)cn1` [Example 201, (S)-5-((3-(5-(3,5-difluorophenyl)-4,5-dihydro-1H-pyrazole-1-carbonyl)bicyclo[1.1.1]pentan-1-yl)methoxy)pyrazine-2-carbonitrile], for which the half-maximal inhibitory concentration (IC50) in assay [1] (Homo sapiens, U-937, 22 h) came out at 7.1 nM. Besides, in assay [2], the “observed potency relative to the other enantiomer” value was “more potent isomer”.

For `N#Cc1ccc2c(cnn2CC23CC(C(=O)N4N=CCC4c4ccc5nccn5c4)(C2)C3)c1` (stereo not drawn) [Example 258, 1-((3-(5-(imidazo[1,2-a]-pyridin-6-yl)-4,5-dihydro-1H-pyrazole-1-carbonyl)bicyclo-[1.1.1]pentan-1-yl)methyl)-1H-indazole-5-carbonitrile], the concentration for half-maximal inhibition (IC50) in assay [1] (Homo sapiens, U-937, 22 h) is 3820 nM; in assay [2], 1010 nM.

For `Cc1ccc2c(cnn2CC23CC(C(=O)N4N=CCC4c4cncc(F)c4)(C2)C3)n1` (stereo not drawn) [Example 132, (5-(5-fluoropyridin-3-yl)-4,5-dihydro-1H-pyrazol-1-yl)(3-((5-methyl-1H-pyrazolo[4,3-b]pyridin-1-yl)methyl)-bicyclo[1.1.1]pentan-1-yl)methanone], the IC50 in assay [1] (Homo sapiens, U-937, 22 h) was determined as 826 nM; in assay [2] it was 139 nM.

Regarding `Cc1cc(F)c([C@@H]2CC=NN2C(=O)C23CC(COc4cnc(C#N)cn4)(C2)C3)cc1F` [Example 197, (S)-5-((3-(5-(2,5-difluoro-4-methylphenyl)-4,5-dihydro-1H-pyrazole-1-carbonyl)bicyclo[1.1.1]pentan-1-yl)methoxy)pyrazine-2-carbonitrile], the IC50 in assay [1] (Homo sapiens, U-937, 22 h) stood at 0.77 nM. For the same molecule, the “observed potency relative to the other enantiomer” value in assay [2] was “more potent isomer”.

For `O=C(N1N=CCC1c1cc(F)cc(F)c1)C12CC(Cn3cc4c(n3)CCC4)(C1)C2` (stereo not drawn) [Example 144, (5-(3,5-difluorophenyl)-4,5-dihydro-1H-pyrazol-1-yl)(3-((5,6-dihydrocyclopenta[c]-pyrazol-2(4H)-yl)methyl)-bicyclo[1.1.1]pentan-1-yl)methanone], the IC50 in assay [1] (Homo sapiens, U-937, 22 h) stood at 1180 nM; in assay [2] it was 145 nM.

`O=C(N1N=CCC1c1cc(F)cc(F)c1)C12CC(Cn3ncc4cncc(Cl)c43)(C1)C2` (stereo not drawn) [Example 68, (3-((7-chloro-1H-pyrazolo-[4,3-c]pyridin-1-yl)methyl)-bicyclo[1.1.1]pentan-1-yl)(5-(3,5-difluorophenyl)-4,5-dihydro-1H-pyrazol-1-yl)methanone]: the concentration for half-maximal inhibition (IC50) in assay [1] (Homo sapiens, U-937, 22 h) amounted to 34 nM; in assay [2] it was 20 nM.

As to `Cc1cnn(CC23CC(C(=O)N4N=CCC4c4cc(F)cc(F)c4)(C2)C3)c1` (stereo not drawn) [Example 74, (5-(3,5-difluorophenyl)-4,5-dihydro-1H-pyrazol-1-yl)(3-((4-methyl-1H-pyrazol-1-yl)-methyl)bicyclo[1.1.1]pentan-1-yl)methanone], the 50% inhibitory concentration (IC50) in assay [1] (Homo sapiens, U-937, 22 h) was determined as 514 nM; in assay [2] it was 124 nM.

With `Cc1nn(CC23CC(C(=O)N4N=CCC4c4cncc(F)c4)(C2)C3)c2ccc(C#N)cc12` (stereo not drawn) [Example 130, 1-((3-(5-(5-fluoropyridin-3-yl)-4,5-dihydro-1H-pyrazole-1-carbonyl)bicyclo[1.1.1]-pentan-1-yl)methyl)-3-mcthyl-1H-indazole-5-carbonitrile], the IC50 came out at 1240 nM in assay [1] (Homo sapiens, U-937, 22 h) and 238 nM in assay [2].

Turning to `O=C(N1N=CCC1c1cc(F)cc(F)c1)C12CC(Cn3cc(C(F)(F)F)cn3)(C1)C2` (stereo not drawn) [Example 72, (5-(3,5-difluorophenyl)-4,5-dihydro-1H-pyrazol-1-yl)(3-((4-(trifluoromethyl)-1H-pyrazol-1-yl)methyl)bicyclo-[1.1.1]pentan-1-yl)methanone], the IC50 in assay [1] (Homo sapiens, U-937, 22 h) amounted to 98 nM; in assay [2], 78 nM.

Consider `COc1cccc(C(F)C23CC(C(=O)N4N=CCC4c4cc(F)cc(F)c4)(C2)C3)c1` (stereo not drawn) [Example 226, (5-(3,5-difluorophenyl)-4,5-dihydro-1H-pyrazol-1-yl)(3-(fluoro(3-methoxyphenyl)-methyl)bicyclo[1.1.1]pentan-1-yl)methanone], for which the half-inhibitory concentration (IC50) in assay [1] (Homo sapiens, U-937, 22 h) came out at 51 nM; in assay [2], 35 nM.

As to `O=C(N1N=CCC1c1cc(F)cc(F)c1)C12CC(Cn3cc(-c4cnccn4)cn3)(C1)C2` (stereo not drawn) [Example 112, (5-(3,5-difluorophenyl)-4,5-dihydro-1H-pyrazol-1-yl)(3-((4-(pyrazin-2-yl)-1H-pyrazol-1-yl)methyl)-bicyclo[1.1.1]pentan-1-yl)-methanone], the IC50 stood at 285 nM in assay [1] (Homo sapiens, U-937, 22 h) and 73 nM in assay [2].

With `N#Cc1cc(OCC23CC(C(=O)N4N=CCC4c4cc(F)cc(F)c4)(C2)C3)ncn1` (stereo not drawn) [Example 9, 6-((3-(5-(3,5-Difluorophenyl)-4,5-dihydro-1H-pyrazole-1-carbonyl)bicyclo[1.1.1]pentan-1-yl)methoxy)pyrimidine-4-carbonitrile], the IC50 was 62 nM in assay [1] (Homo sapiens, U-937, 22 h) and 16 nM in assay [2].

Take `CC1=NN(C(=O)C23CC(Cn4cc(C#N)cn4)(C2)C3)C(c2cc(F)cc(F)c2)C1` (stereo not drawn) [Example 47, 1-((3-(5-(3,5-difluorophenyl)-3-methyl-4,5-dihydro-1H-pyrazole-1-carbonyl)-bicyclo[1.1.1]pentan-1-yl)methyl)-1H-pyrazole-4-carbonitrile]: the 50% inhibitory concentration (IC50) in assay [1] (Homo sapiens, U-937, 22 h) was determined as 1110 nM; in assay [2] it was 93 nM.

On to `Cc1cnn(CC23CC(C(=O)N4N=CCC4c4cc(F)cc(F)c4)(C2)C3)c1C#N` (stereo not drawn) [Example 156, 1-((3-(5-(3,5-difluorophenyl)-4,5-dihydro-1H-pyrazole-1-carbonyl)bicyclo[1.1.1]-pentan-1-yl)methyl)-4-methyl-1H-pyrazole-5-carbonitrile], for which the 50% inhibitory concentration (IC50) is 159 nM in assay [1] (Homo sapiens, U-937, 22 h) and 38 nM in assay [2].

In the case of `N#Cc1cn(CC23CC(C(=O)N4N=CCC4c4cc(F)cc(F)c4)(C2)C3)cn1` (stereo not drawn) [Example 124, 1-((3-(5-(3,5-difluorophenyl)-4,5-dihydro-1H-pyrazole-1-carbonyl)bicyclo[1.1.1]-pentan-1-yl)methyl)-1H-imidazole-4-carbonitrile], the IC50 came out at 751 nM in assay [1] (Homo sapiens, U-937, 22 h) and 156 nM in assay [2].

On to `Cc1ccc(C2CC=NN2C(=O)C23CC(Cn4ncc5cc(C#N)ccc54)(C2)C3)nc1` (stereo not drawn) [Example 174, 1-((3-(5-(5-methylpyridin-2-yl)-4,5-dihydro-1H-pyrazole-1-carbonyl)bicyclo[1.1.1]-pentan-1-yl)methyl)-1H-indazole-5-carbonitrile], for which the IC50 in assay [1] (Homo sapiens, U-937, 22 h) worked out at 63 nM; in assay [2], 48 nM.

As to `N#Cc1ncn(CC23CC(C(=O)N4N=CCC4c4cc(F)cc(F)c4)(C2)C3)n1` (stereo not drawn) [Example 178, 1-((3-(5-(3,5-difluorophenyl)-4.5-dihydro-1H-pyrazole-1-carbonyl)bicyclo[1.1.1]-pentan-1-yl)methyl)-1H-1,2,4-triazole-3-carbonitrile], the IC50 in assay [1] (Homo sapiens, U-937, 22 h) turned out to be 228 nM; in assay [2], 103 nM.

In the case of `Cc1cncc(C2CC=NN2C(=O)C23CC(Cn4ncc5cc(C#N)ccc54)(C2)C3)n1` (stereo not drawn) [Example 50, 1-((3-(5-(6-methylpyrazin-2-yl)-4,5-dihydro-1H-pyrazole-1-carbonyl)bicyclo[1.1.1]pentan-1-yl)methyl)-1H-indazole-5-carbonitrile], the IC50 in assay [1] (Homo sapiens, U-937, 22 h) is 36 nM; in assay [2] it was 16 nM.

With `Cc1cc(F)c([C@H]2CC=NN2C(=O)C23CC(COc4cnc(C#N)cn4)(C2)C3)cc1F` [Example 196, (R)-5-((3-(5-(2,5-difluoro-4-methylphenyl)-4,5-dihydro-1H-pyrazole-1-carbonyl)bicyclo[1.1.1]pentan-1-yl)methoxy)pyrazine-2-carbonitrile], the IC50 in assay [1] (Homo sapiens, U-937, 22 h) was found to be 631 nM. For the same molecule, in assay [2], the “observed potency relative to the other enantiomer” value is reported as “less potent isomer”.

`COc1ccc2cn(CC34CC(C(=O)N5N=CCC5c5cc(F)cc(F)c5)(C3)C4)nc2c1` (stereo not drawn) [Example 57, (5-(3,5-difluorophenyl)-4,5-dihydro-1H-pyrazol-1-yl)(3-((6-methoxy-2H-indazol-2-yl)methyl)bicyclo[1.1.1]-pentan-1-yl)methanone]: the half-inhibitory concentration (IC50) in assay [1] (Homo sapiens, U-937, 22 h) was 110 nM; in assay [2] it was 32 nM.

Consider `O=C(N1N=CCC1c1cc(F)cc(F)c1)C12CC(COc3cc(F)ccc3F)(C1)C2` (stereo not drawn) [Example 338, (3-((2,5-difluorophenoxy)-methyl)bicyclo[1.1.1]pentan-1-yl)(5-(3,5-difluorophenyl)-4,5-dihydro-1H-pyrazol-1-yl)methanone], for which the half-inhibitory concentration (IC50) in assay [1] (Homo sapiens, U-937, 22 h) amounted to 165 nM; in assay [2] it was 26 nM.

In the case of `CC1CC(c2cccc(F)c2)N(C(=O)C23CC(Cn4cc(C#N)cn4)(C2)C3)C1` (stereo not drawn) [Example 172, 1-((3-(2-(3-fluorophenyl)-4-methylpyrrolidine-1-carbonyl)bicyclo[1.1.1]-pentan-1-yl)methyl)-1H-pyrazole-4-carbonitrile], the IC50 in assay [1] (Homo sapiens, U-937, 22 h) is over 10000 nM; in assay [2] it was 4350 nM.

As to `N#Cc1cnc2ncn(CC34CC(C(=O)N5N=CCC5c5cc(F)cc(F)c5)(C3)C4)c2c1` (stereo not drawn) [Example 184, 1-((3-(5-(3,5-difluorophenyl)-4,5-dihydro-1H-pyrazole-1-carbonyl)bicyclo[1.1.1]-pentan-1-yl)methyl)-1H-imidazo[4,5-b]pyridine-6-carbonitrile or 3-((3-(5-(3,5-difluorophenyl)-4,5-dihydro-1H-pyrazole-1-carbonyl)bicyclo[1.1.1]pentan-1-yl)methyl)-3H-imidazo[4,5-b]pyridine-6-carbonitrile], the 50% inhibitory concentration (IC50) turned out to be 1240 nM in assay [1] (22 h) and 136 nM in assay [2].
